Test results from PubChem BioAssay (NCI).
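How tested: cells in 96-well plates exposed to compound for 48 hours at five concentrations. At the TGI there is no net growth.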

Assays:
Assay in all cases: NCI-60 cell line screen, 48 h
HCC-2998 colon = system: HCC-2998 colon
HCT-116 colon = system: HCT-116 colon
HOP-92 NSCLC = system: HOP-92 NSCLC
KM12 colon = system: KM12 colon
LOX IMVI melanoma = system: LOX IMVI melanoma
M14 melanoma = system: M14 melanoma
NCI-H226 lung = system: NCI-H226 lung
OVCAR-4 ovarian = system: OVCAR-4 ovarian
SF-295 CNS = system: SF-295 CNS
SK-MEL-28 melanoma = system: SK-MEL-28 melanoma
SN12C renal = system: SN12C renal
SNB-19 CNS = system: SNB-19 CNS
SNB-75 CNS = system: SNB-75 CNS
SR leukemia = system: SR leukemia
UACC-62 melanoma = system: UACC-62 melanoma
HS 578T breast = system: HS 578T breast
NCI/ADR-RES ovarian = system: NCI/ADR-RES ovarian
PC-3 prostate = system: PC-3 prostate
MDA-N = system: MDA-N

Row | Compound | TGI (HCC-2998 colon) [µM] | TGI (HCT-116 colon) [µM] | TGI (HOP-92 NSCLC) [µM] | TGI (KM12 colon) [µM] | TGI (LOX IMVI melanoma) [µM] | TGI (M14 melanoma) [µM] | TGI (NCI-H226 lung) [µM] | TGI (OVCAR-4 ovarian) [µM] | TGI (SF-295 CNS) [µM] | TGI (SK-MEL-28 melanoma) [µM] | TGI (SN12C renal) [µM] | TGI (SNB-19 CNS) [µM] | TGI (SNB-75 CNS) [µM] | TGI (SR leukemia) [µM] | TGI (UACC-62 melanoma) [µM] | TGI (HS 578T breast) [µM] | TGI (NCI/ADR-RES ovarian) [µM] | TGI (PC-3 prostate) [µM] | TGI (MDA-N) [µM]
1 | COc1cc2c(oc(=O)c3cc4cc([Si](C)(C)C)oc4c(OC)c32)c2cccc(O)c12 | > 100 | > 100 | > 100 | > 100 | > 100 | > 100 | > 100 | > 100 | > 100 | > 100 | > 100 | > 100 | > 100 | > 100 | > 100 |  |  |  | 
2 | Cc1c2ccncc2c(C)c2c1[nH]c1ccc(Oc3ccccc3)cc12 | 3.18 |  | 13.9 | 9.49 | 4 |  | 37.6 | 10.5 | 12.6 | 9.67 | 4.69 | 46.1 | 8.73 | 12.3 | 3.16 |  |  |  | 
3 | Cc1ccc(/C=C/C(=O)c2sc(-n3nc(-c4ccccc4)cc3-c3ccccc3)nc2C)cc1 | > 100 |  | > 100 | > 100 | > 100 |  | > 100 |  | > 100 | > 100 | > 100 |  | > 100 |  | > 100 |  |  |  | 
4 | COCN(C)c1nc(N(C)C)nc(N(C)C)n1 | > 100 | > 100 | > 100 | > 100 | > 100 | > 100 |  | > 100 | > 100 | > 100 | > 100 | > 100 | > 100 | > 100 | > 100 |  |  |  | 
5 | CN(C)c1ccc(/C=N/c2nc3cc4sc(/N=C/c5ccc(N(C)C)cc5)nc4cc3s2)cc1 |  | > 100 | > 100 | > 100 | > 100 | > 100 | > 100 | > 100 | > 100 | > 100 | > 100 | > 100 | > 100 | > 100 | > 100 | 92.4 | > 100 | > 100 | 
6 | CC(C)OC(=O)[C@H]1ON2O[C@H](O[C@@H]3CCCC[C@H]3c3ccccc3)C([Si](C)(C)c3ccccc3)[C@H]3OC(=O)[C@@H]1C32 (some centres not stated) | > 100 | > 100 | > 100 | > 100 | > 100 | > 100 | > 100 |  | > 100 | > 100 | > 100 | > 100 | > 100 | 54.2 | > 100 | > 100 | > 100 | > 100 | 
7 | CS(=O)(=O)OCCCSCCSCCCOS(C)(=O)=O | > 100 | > 100 | > 100 | > 100 | > 100 | > 100 |  | > 100 | > 100 | > 100 | > 100 | > 100 | > 100 | > 100 | > 100 |  | > 100 | > 100 | > 100
8 | O=C(CC(C(=O)c1ccsc1)c1ccsc1)c1ccsc1 (configuration not stated) | > 100 | > 100 |  | > 100 | > 100 | > 100 | > 100 | > 100 | > 100 | > 100 | > 100 | > 100 | > 100 | > 100 | > 100 | > 100 | > 100 | > 100 | 
9 | CCN(CC)C(=S)SCC(=O)Nc1nc2c(s1)CCCC2 | > 100 | > 100 | > 100 | > 100 | > 100 | > 100 | > 100 | > 100 | > 100 | > 100 | > 100 | > 100 | > 100 | 90.7 |  |  |  |  | 
10 | O=C1OCC(c2ccc(Cl)cc2)=C1Cl | 47.8 | 28.3 | 58.9 | 36 | 60.3 | 41.8 | > 100 | > 100 | > 100 | > 100 | 80.4 | > 100 | > 100 | 39.2 | 45.9 | > 100 | 55.8 | 67.9 | 
11 | c1ccc2c(c1)Cc1c(Cc3csc4ccccc34)ccc3cccc-2c13 | > 100 | > 100 | > 100 | > 100 |  | > 100 |  | > 100 | > 100 | > 100 | > 100 | > 100 | > 100 |  | > 100 |  |  |  | 
12 | COc1cc([C@@H]2c3cc4c(cc3[C@@H](OC(=O)c3cccc(N)c3)C3COC(=O)[C@@H]32)OCO4)cc(OC)c1O (some centres not stated) | 28.7 | > 100 |  | > 73.5 | 33.8 | 28.3 | 6.09 | > 100 | 35.4 | > 100 | 31.3 | > 100 | > 100 | 17.9 | 24.1 |  |  |  | 
13 | CCOC(=O)NN(C(=O)OCC)C(=C(C1=CCCCC1)N1CCOCC1)N(NC(=O)OCC)C(=O)OCC | > 100 |  | > 100 | > 100 | > 100 | > 100 | > 100 |  | > 100 | > 100 | > 100 | > 100 | > 100 | > 100 | > 100 |  | > 100 | > 100 | > 100
14 | ClCC[N-]CC[N-]CCCl.ClCC[N-]CC[N-]CCCl.[O-][Cl+3]([O-])([O-])O.[Zn+2] | > 100 | > 62.8 | > 57.3 | > 100 | 57.2 | 38.5 | > 100 | 41.8 | > 100 | > 62.4 | > 100 | > 100 | 44.1 | > 100 | 66.9 |  |  |  | 
15 | CC1(C)Cc2c(oc3ncnc(N)c23)CS1 | > 100 | > 100 |  | > 100 | > 100 | > 100 | > 100 | > 100 | > 100 |  | > 100 | > 100 | > 100 | > 100 | > 100 |  |  |  | 
